Reference: US11673884B2, “Matrix metalloproteinase (MMP) inhibitors and methods of use thereof” (Foresee Pharmaceuticals Co., Ltd., priority 2019, dated 2023)
Where two headings read alike, the source gives them in different places.

Tests used:
Format in all cases: biochemical
[1] = target: recombinant human MMP-12 catalytic domain (Homo sapiens (Human), UniProt P39900); assay: MMP-12 inhibitory assay, fluorogenic substrate cleavage
Method: (§1) The inhibitory effect of compounds on the rate of cleaving fluorogenic MMP substrate (Enzo, BML-P128) by recombinant human MMP-12 catalytic domain (Enzo, BML-SE138) was carried out by methods known in the art. Briefly, to each well of a 96-well black opaque plate, all the reagents were sequentially added by pipetting, and the final reaction contained 4 nM of recombinant human MMP-12 catalytic domain, 4 μM of fluorogenic MMP substrate, and various concentrations (0.057 nM to 1,000 nM) of tested compound dilutions in HEPES buffer (pH 7.5) containing 10 mM of CaCl2, 0.01% Brij® 35 (polyoxyethylene (23) lauryl ether), and 0.1 mg/ml of BSA.
(§2) The enzyme and compounds were pre-incubated on a shaker to mix in wells. After an hour of mixing, fluorogenic substrate was added to each well. Reaction without enzyme was used as a blank control in the plate. The plate was then fed into a plate reader to measure fluorescence intensity at Excitation/Emission wavelengths of 340 nm/440 nm every 10 mins for at least 1 hour at 37° C. The IC50 of each compound in MMP-12 inhibition was determined by using a readout obtained at time point 30 minutes.

recombinant human MMP-1 = recombinant human MMP-1 (Homo sapiens (Human), UniProt P03956); assay: MMP selectivity assay, MMP-1; details: Table 2 selectivity profile; read-out: IC50, Target: MMP 1
Method: as §1, §2
(§3) The MMP selectivity assay was performed by using other recombinant human MMPs, including MMP-1, MMP-2, MMP-3, MMP-7, MMP-8, MMP-9, MMP-10, MMP-12, MMP-13, and MMP-14. The IC50 of the compounds for the other recombinant human MMPs was determined as described above in Example 1, and are shown in Table 2. The IC50 values are reported as follows: A=less than 1 nM, B=1 nM to 10 nM, C=10 nM to 100 nM, D=greater than 100 nM.

recombinant human MMP-2 = recombinant human MMP-2 (Homo sapiens (Human), UniProt P08253); assay: MMP selectivity assay, MMP-2; details: Table 2 selectivity profile; read-out: IC50, Target: MMP 2
Method: as §1, §2, §3

recombinant human MMP-3 = recombinant human MMP-3 (Homo sapiens (Human), UniProt P08254); assay: MMP selectivity assay, MMP-3; details: Table 2 selectivity profile; read-out: IC50, Target: MMP 3
Method: as §1, §2, §3

recombinant human MMP-7 = recombinant human MMP-7 (Homo sapiens (Human), UniProt P09237); assay: MMP selectivity assay, MMP-7; details: Table 2 selectivity profile; read-out: IC50, Target: MMP 7
Method: as §1, §2, §3

recombinant human MMP-8 = recombinant human MMP-8 (Homo sapiens (Human), UniProt P22894); assay: MMP selectivity assay, MMP-8; details: Table 2 selectivity profile; read-out: IC50, Target: MMP 8
Method: as §1, §2, §3

recombinant human MMP-9 = recombinant human MMP-9 (Homo sapiens (Human), UniProt P14780); assay: MMP selectivity assay, MMP-9; details: Table 2 selectivity profile; read-out: IC50, Target: MMP 9
Method: as §1, §2, §3

recombinant human MMP-10 = recombinant human MMP-10 (Homo sapiens (Human), UniProt P09238); assay: MMP selectivity assay, MMP-10; details: Table 2 selectivity profile; read-out: IC50, Target: MMP 10
Method: as §1, §2, §3

recombinant human MMP-13 = recombinant human MMP-13 (Homo sapiens (Human), UniProt P45452); assay: MMP selectivity assay, MMP-13; details: Table 2 selectivity profile; read-out: IC50, Target: MMP 13
Method: as §1, §2, §3

recombinant human MMP-14 = recombinant human MMP-14 (Homo sapiens (Human), UniProt P50281); assay: MMP selectivity assay, MMP-14; details: Table 2 selectivity profile; read-out: IC50, Target: MMP 14
Method: as §1, §2, §3

[2] = Table 1, readout at time point 30 minutes, read-out: MMP-12 IC50
[3] = Table 2 selectivity profile, read-out: IC50, Target: MMP 12

Sequence of recombinant human MMP-10 (P09238 99-476): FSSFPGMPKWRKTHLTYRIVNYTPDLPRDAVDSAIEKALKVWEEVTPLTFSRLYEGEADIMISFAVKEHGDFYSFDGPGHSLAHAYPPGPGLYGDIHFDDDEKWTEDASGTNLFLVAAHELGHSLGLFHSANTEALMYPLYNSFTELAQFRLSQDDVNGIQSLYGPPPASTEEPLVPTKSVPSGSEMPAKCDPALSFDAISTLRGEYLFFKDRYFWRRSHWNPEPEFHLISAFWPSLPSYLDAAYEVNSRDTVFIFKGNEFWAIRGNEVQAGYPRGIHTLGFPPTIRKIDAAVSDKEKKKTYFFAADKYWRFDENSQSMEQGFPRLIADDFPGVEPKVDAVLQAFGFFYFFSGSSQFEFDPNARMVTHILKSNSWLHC
Sequence of recombinant human MMP-2 (P08253 110-660): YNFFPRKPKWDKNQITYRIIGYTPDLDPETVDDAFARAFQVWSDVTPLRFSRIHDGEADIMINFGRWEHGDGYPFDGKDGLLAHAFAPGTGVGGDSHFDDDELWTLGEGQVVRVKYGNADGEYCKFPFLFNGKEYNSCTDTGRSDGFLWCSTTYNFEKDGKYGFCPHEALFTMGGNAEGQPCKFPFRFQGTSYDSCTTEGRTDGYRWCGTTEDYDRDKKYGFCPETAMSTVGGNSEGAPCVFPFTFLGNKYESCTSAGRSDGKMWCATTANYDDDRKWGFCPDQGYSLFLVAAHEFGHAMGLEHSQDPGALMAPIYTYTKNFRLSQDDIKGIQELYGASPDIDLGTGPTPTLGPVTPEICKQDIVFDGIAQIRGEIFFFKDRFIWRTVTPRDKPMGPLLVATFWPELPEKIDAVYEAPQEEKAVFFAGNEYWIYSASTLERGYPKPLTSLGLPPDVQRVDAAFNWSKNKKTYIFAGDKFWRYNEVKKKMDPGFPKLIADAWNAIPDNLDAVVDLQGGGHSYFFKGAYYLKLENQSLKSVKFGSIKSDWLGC
Sequence of recombinant human MMP-7 (P09237 95-267): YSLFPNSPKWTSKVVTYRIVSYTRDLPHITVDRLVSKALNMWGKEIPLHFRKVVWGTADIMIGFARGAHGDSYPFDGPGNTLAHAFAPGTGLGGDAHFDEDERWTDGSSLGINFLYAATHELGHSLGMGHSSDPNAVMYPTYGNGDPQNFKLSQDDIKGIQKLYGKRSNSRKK
Sequence of recombinant human MMP-1 (P03956 100-469): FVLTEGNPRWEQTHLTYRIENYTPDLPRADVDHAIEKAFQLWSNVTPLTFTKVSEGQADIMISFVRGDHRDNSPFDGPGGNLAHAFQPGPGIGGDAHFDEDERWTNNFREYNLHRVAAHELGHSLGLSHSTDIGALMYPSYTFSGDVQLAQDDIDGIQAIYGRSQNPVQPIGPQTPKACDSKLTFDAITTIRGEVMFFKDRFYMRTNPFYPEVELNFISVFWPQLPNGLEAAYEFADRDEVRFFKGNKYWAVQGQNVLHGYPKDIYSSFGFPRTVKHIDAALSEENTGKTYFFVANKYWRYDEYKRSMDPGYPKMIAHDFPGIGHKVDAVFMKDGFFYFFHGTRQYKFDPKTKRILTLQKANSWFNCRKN
Sequence of recombinant human MMP-12 catalytic domain (P39900 106-268): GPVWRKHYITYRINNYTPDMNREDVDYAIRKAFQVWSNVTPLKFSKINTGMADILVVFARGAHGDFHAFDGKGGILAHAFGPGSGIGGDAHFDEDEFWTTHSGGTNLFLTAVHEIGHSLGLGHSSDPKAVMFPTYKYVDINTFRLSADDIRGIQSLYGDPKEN
Sequence of recombinant human MMP-8 (P22894 101-467): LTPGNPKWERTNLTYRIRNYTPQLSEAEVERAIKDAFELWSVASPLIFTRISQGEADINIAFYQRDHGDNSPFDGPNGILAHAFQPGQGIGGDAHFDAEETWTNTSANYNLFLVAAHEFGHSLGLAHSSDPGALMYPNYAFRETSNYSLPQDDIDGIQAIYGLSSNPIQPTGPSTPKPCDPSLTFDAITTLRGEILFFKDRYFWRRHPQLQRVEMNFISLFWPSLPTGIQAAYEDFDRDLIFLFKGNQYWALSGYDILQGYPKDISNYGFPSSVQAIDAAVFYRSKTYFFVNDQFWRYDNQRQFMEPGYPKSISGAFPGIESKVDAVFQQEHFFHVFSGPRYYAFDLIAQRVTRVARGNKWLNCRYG
Sequence of recombinant human MMP-3 (P08254 100-477): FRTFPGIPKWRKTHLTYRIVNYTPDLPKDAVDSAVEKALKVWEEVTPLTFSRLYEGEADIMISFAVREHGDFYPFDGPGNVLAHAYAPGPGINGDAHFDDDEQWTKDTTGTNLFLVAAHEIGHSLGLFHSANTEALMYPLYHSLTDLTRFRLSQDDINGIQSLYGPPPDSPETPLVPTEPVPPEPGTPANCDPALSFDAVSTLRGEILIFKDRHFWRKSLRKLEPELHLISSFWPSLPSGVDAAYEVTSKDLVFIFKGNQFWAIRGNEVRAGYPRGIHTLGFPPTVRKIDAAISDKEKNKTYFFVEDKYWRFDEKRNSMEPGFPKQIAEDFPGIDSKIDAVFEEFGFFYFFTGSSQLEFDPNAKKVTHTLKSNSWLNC
Sequence of recombinant human MMP-9 (P14780 94-707): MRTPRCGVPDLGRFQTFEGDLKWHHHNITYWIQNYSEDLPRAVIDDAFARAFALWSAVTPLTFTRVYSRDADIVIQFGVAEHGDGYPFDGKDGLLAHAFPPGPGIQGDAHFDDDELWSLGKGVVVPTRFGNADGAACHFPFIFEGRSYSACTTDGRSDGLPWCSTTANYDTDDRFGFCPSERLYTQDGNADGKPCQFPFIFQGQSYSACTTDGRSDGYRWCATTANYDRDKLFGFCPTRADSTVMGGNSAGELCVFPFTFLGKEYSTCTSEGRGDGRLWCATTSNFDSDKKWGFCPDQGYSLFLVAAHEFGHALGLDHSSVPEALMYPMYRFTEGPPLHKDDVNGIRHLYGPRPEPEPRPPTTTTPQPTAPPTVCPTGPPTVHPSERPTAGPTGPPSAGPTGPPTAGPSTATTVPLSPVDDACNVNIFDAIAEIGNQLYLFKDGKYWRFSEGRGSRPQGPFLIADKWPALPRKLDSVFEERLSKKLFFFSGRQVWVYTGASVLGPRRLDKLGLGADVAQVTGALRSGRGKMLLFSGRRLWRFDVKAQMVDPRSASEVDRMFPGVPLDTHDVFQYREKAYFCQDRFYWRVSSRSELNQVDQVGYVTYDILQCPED

IC50 [1, 2] | IC50 [1, 3] | IC50 (recombinant human MMP-1) | IC50 (recombinant human MMP-2) | IC50 (recombinant human MMP-3) | IC50 (recombinant human MMP-7) | IC50 (recombinant human MMP-8) | IC50 (recombinant human MMP-9) | IC50 (recombinant human MMP-10) | IC50 (recombinant human MMP-13) | IC50 (recombinant human MMP-14) | SMILES
1 to 10 nM | 1 to 10 nM | > 100 nM | > 100 nM | > 100 nM | > 100 nM | > 100 nM | > 100 nM | > 100 nM | > 100 nM | > 100 nM | Cc1cc(C#Cc2ccc(Oc3ccncc3C3NC(=O)NC3=O)cc2)ccn1 (centres unmarked) [AC-7]
< 1 nM | < 1 nM | > 100 nM | 10 to 100 nM | > 100 nM | > 100 nM | 10 to 100 nM | > 100 nM | > 100 nM | > 100 nM | > 100 nM | Cc1cc(C#Cc2ccc(Sc3cnn(C)c3C3NC(=O)NC3=O)cc2)ccn1 (centres unmarked) [AC-11]
< 1 nM | < 1 nM | > 100 nM | 10 to 100 nM | > 100 nM | > 100 nM | 10 to 100 nM | > 100 nM | > 100 nM | > 100 nM | > 100 nM | Cc1cc(C#Cc2ccc(Sc3ccsc3C3NC(=O)NC3=O)cc2)ccn1 (centres unmarked) [AC-9]
< 1 nM |  |  |  |  |  |  |  |  |  |  | CCC1(c2cnccc2Sc2ccc(/C=C/c3ccnc(C)c3)cc2)NC(=O)NC1=O (centres unmarked) [AC-8]
< 1 nM | < 1 nM | > 100 nM | 1 to 10 nM | 10 to 100 nM | > 100 nM | 1 to 10 nM | 10 to 100 nM | > 100 nM | 1 to 10 nM | > 100 nM | Cc1cc(/C=C/c2ccc(Sc3ccsc3C3NC(=O)NC3=O)cc2)ccn1 (centres unmarked) [AC-10]
< 1 nM | < 1 nM | > 100 nM | 10 to 100 nM | > 100 nM | > 100 nM | 10 to 100 nM | > 100 nM | > 100 nM | > 100 nM | > 100 nM | Cc1cc(/C=C/c2ccc(Oc3ccncc3C3NC(=O)NC3=O)cc2)ccn1 (centres unmarked) [AC-6]
< 1 nM | < 1 nM | > 100 nM | 1 to 10 nM | > 100 nM | > 100 nM | 10 to 100 nM | > 100 nM | > 100 nM | 10 to 100 nM | > 100 nM | Cc1cc(/C=C/c2ccc(Sc3cnn(C)c3C3NC(=O)NC3=O)cc2)ccn1 (centres unmarked) [AC-12]

Second part, the compound before the results:

SMILES | IC50 [1, 2] | IC50 [1, 3] | IC50 (recombinant human MMP-1) | IC50 (recombinant human MMP-2) | IC50 (recombinant human MMP-3) | IC50 (recombinant human MMP-7) | IC50 (recombinant human MMP-8) | IC50 (recombinant human MMP-9) | IC50 (recombinant human MMP-10) | IC50 (recombinant human MMP-13) | IC50 (recombinant human MMP-14)
Cc1cc(C#Cc2ccc(Sc3ccncc3C3NC(=O)NC3=O)cc2)ccn1 (centres unmarked) [AC-4] | 1 to 10 nM | 1 to 10 nM | > 100 nM | > 100 nM | > 100 nM | > 100 nM | > 100 nM | > 100 nM | > 100 nM | > 100 nM | > 100 nM
Cc1cc(C#Cc2ccc(Sc3ccoc3C3NC(=O)NC3=O)cc2)ccn1 (centres unmarked) [AC-1] | 10 to 100 nM | 10 to 100 nM | > 100 nM | > 100 nM | > 100 nM | > 100 nM | > 100 nM | > 100 nM | > 100 nM | > 100 nM | > 100 nM
Cc1cc(/C=C/c2ccc(Sc3ccoc3C3NC(=O)NC3=O)cc2)ccn1 (centres unmarked) [AC-2] | < 1 nM | < 1 nM | > 100 nM | 1 to 10 nM | 10 to 100 nM | > 100 nM | 10 to 100 nM | 10 to 100 nM | > 100 nM | 10 to 100 nM | > 100 nM
Cc1cc(/C=C/c2ccc(Sc3ccncc3C3NC(=O)NC3=O)cc2)ccn1 (centres unmarked) [AC-5] | < 1 nM | < 1 nM | > 100 nM | 10 to 100 nM | > 100 nM | > 100 nM | > 100 nM | > 100 nM | > 100 nM | > 100 nM | > 100 nM
CCC1(c2occc2Sc2ccc(/C=C/c3ccnc(C)c3)cc2)NC(=O)NC1=O (centres unmarked) [AC-3] | < 1 nM | < 1 nM | > 100 nM | 1 to 10 nM | 10 to 100 nM | > 100 nM | 1 to 10 nM | 10 to 100 nM | 10 to 100 nM | 10 to 100 nM | > 100 nM
